From patent US12433908B2, “Use of nicotinamide riboside, nicotinic acid riboside, and nicotinamide mononucleotide, reduced nicotinyl compounds, and nicotinoyl compound derivatives in infant formula for healthy development” (ChromaDex, Inc., priority 2016, dated 2025)

Assay: Fecal and activity scores of piglets given NR solution
Format: in vivo, piglets (Yorkshire/Hampshire crossbred)
Conditions: for Activity Score: scale 4=alert, attentive to 1=very lethargic; for Fecal Score: scale 4=normal (solid) to 1=severe diarrhea (liquid)
Excerpt: Sixteen (n=16) Yorkshire/Hampshire crossbred piglets were obtained from the University of California, Davis Swine Teaching and Research Center and received on lactation day (“LD”) 14. Prior to arrive, the piglets were processed by the suppler between 1-3 days of age by administration of iron and an antibiotic ([…] for swine) as is common practice at the University of California, Davis Swine Facility. It is not common practice at the University of California, Davis Swine Facility to give a second dose of iron and antibiotics unless it becomes necessary. The piglets were from two litters (litters 15 and 17), weaned at 17 days of age, and randomly placed into one of two groups balanced for litter, sex, and weight. The animals were not acclimated to the facility at arrival and were subsequently acclimated to the test diet administration system. The piglets were weaned into a temperature-controlled room (approximately 27-29° C.) that contained 10 adjacent pens. The piglets were group-housed in the nursery room at the Swine Facility, which is an enclosed room with access restricted to trained personnel. The two groups were separated by one pen containing piglets of similar age. Each morning enough nicotinamide riboside (NR, I) in water solution was prepared for that day's dose administration according to the dose preparation protocol. At least 5 mL of prepared dose was reserved and immediately frozen after preparation each day for analysis of nicotinamide riboside (NR, I) for the purpose of confirming stability of the dose material. The doses were stored at refrigeration temperature while not in use. Nicotinamide riboside (NR, I) was dosed once per day in the morning and at the same time each day. Piglets in the control group received the same volume of plain water and were dosed on the same schedule. Starting on Day 1, animals in the nicotinamide riboside (NR, I) group were dosed once daily (in the morning) with 277 mg nicotinamide riboside (NR, I) per pig resuspended in water for seven days. After one week, animals were dosed once daily with 342 mg nicotinamide riboside (NR, I) per pig delivered in 2.5 mL for seven days. For Days 1 and 2, the nicotinamide riboside (NR, I) solution was prepared by resuspending 2770 mg nicotinamide riboside (NR, I) in 50 mL water, and 5 mL of this solution was delivered to each pig by squirting it into the back of the mouth using a 10 mL syringe with a piece of tubing attached to the end. To reduce the volume to more efficiently deliver the nicotinamide riboside (NR, I) solution, the 2770 mg was resuspended in 25 mL water and 2.5 mL of the solution was squirted into the back of the mouth of each pig using a 3 mL syringe for Days 3-7. For Days 8-14, 3420 mg nicotinamide riboside (NR, I) was resuspended in 25 mL water and 2.5 mL of this solution was delivered to each pig. Each day prior to dosing, 2.5 mL of the nicotinamide riboside (NR, I) (5 mL on Days 1 and 2) were placed into a separate tube and frozen. All animals were weighed at weaning (baseline) and after one and two weeks of nicotinamide riboside (NR, I) supplementation. Fecal and activity scores were recorded daily using the scales listed below. Weights and fecal scores were analyzed using a two-factor repeated measures ANOVA (mixed-model ANOVA) with p values<0.05 considered significant. The fecal consistency scale used is as follows: 4=normal (solid); 3=soft feces (semi-solid); 2=mild diarrhea (semi liquid); 1=severe diarrhea (liquid).

[1] = Wk 1, 277 mg/pig once daily oral
[2] = Wk 2, 342 mg/pig once daily oral Days 8-14

- fecal scores, NR vs. control (2-week intervention): not statistically different
- Activity Score (Baseline, before dosing): 4.0
- Fecal Score (Baseline, before dosing): 3.78 ± 0.39
- Activity Score [1]: 4.0
- Fecal Score [1]: 2.93 ± 0.67
- Activity Score [2]: 4.0
- Fecal Score [2]: 2.90 ± 0.60
Compound: NC(=O)c1ccc[n+]([C@@H]2O[C@H](CO)[C@@H](O)[C@H]2O)c1 [NR, Nicotinamide riboside]
